# Columns and labels:
# [1] = Kinetic solubility of compound at pH 4.5; assay type: physicochemical; conditions: buffer, read-out: Kinetic_solubility
# BaF3 [2] = experiment: cells; conditions: Mus musculus, BaF3, 72 h
# [3] = Kinetic solubility of compound at pH 2; assay type: physicochemical; conditions: buffer, read-out: Kinetic_solubility
# cells = conditions: Mus musculus, BaF3/TRP-Met, 72 h
# BaF3 [4] = experiment: cells; conditions: Mus musculus, BaF3, 72 h; remark: listed apart in the source
# BaF3 [5] = experiment: cells; conditions: Mus musculus, BaF3, 72 h; remark: listed apart in the source
# BaF3 [6] = experiment: cells; conditions: Mus musculus, BaF3, 72 h; remark: listed apart in the source
# BaF3 [7] = experiment: cells; conditions: Mus musculus, BaF3, 72 h; remark: listed apart in the source
# BaF3 [8] = experiment: cells; conditions: Mus musculus, BaF3, 72 h; remark: listed apart in the source
# BaF3 [9] = experiment: cells; conditions: Mus musculus, BaF3, 72 h; remark: listed apart in the source
# BaF3 [10] = experiment: cells; conditions: Mus musculus, BaF3, 72 h; remark: listed apart in the source
# BaF3 [11] = experiment: cells; conditions: Mus musculus, BaF3, 72 h; remark: listed apart in the source
# BaF3 [12] = experiment: cells; conditions: Mus musculus, BaF3, 72 h; remark: listed apart in the source
# BaF3 [13] = experiment: cells; conditions: Mus musculus, BaF3, 72 h; remark: listed apart in the source
# BaF3 [14] = experiment: cells; conditions: Mus musculus, BaF3, 72 h; remark: listed apart in the source
# BaF3 [15] = experiment: cells; conditions: Mus musculus, BaF3, 72 h; remark: listed apart in the source
# BaF3 [16] = experiment: cells; conditions: Mus musculus, BaF3, 72 h; remark: listed apart in the source
# [17] = target: Hepatocyte growth factor receptor (Homo sapiens, UniProt P08581, D1228N); experiment: Inhibition of N-terminal GST-tagged recombinant human c-MET D1228N mutant (956 to end residues) extracted from baculovirus infected Sf9 cells using 5-FAM-KKKKEEIYFFF-CONH2 as substrate preincubated for 30 mins followed by ATP addition measured after 60 mins by fluorescence-based microfluidic mobility shift assay
# [18] = target: Hepatocyte growth factor receptor (Homo sapiens, UniProt P08581); experiment: Inhibition of N-terminal GST-tagged wild-type human c-MET (956 to 1390 residues) extracted from baculovirus infected Sf21 cells using 5-FAM-KKKKEEIYFFF-CONH2 as substrate preincubated for 30 mins followed by ATP addition measured after 60 mins by fluorescence-based microfluidic mobility shift assay
# [19] = target: Vascular endothelial growth factor receptor 2 (Homo sapiens, UniProt P35968); experiment: Inhibition of KDR (unknown origin) by fluorescence-based microfluidic mobility shift assay
# Cytochrome P450 3A4 = Cytochrome P450 3A4 (Homo sapiens, UniProt P08684); experiment: Inhibition of CYP3A4 (unknown origin); assay type: ADME
# L-type calcium channel = L-type calcium channel (Homo sapiens, UniProt O60840+Q01668+Q13698+Q13936); experiment: Inhibition of Calcium channel L-type (unknown origin) at 10 uM by CEREP analysis relative to control; assay type: protein assay
# [20] = target: 5-hydroxytryptamine receptor 2B (Homo sapiens) (UniProt P41595); experiment: Inhibition of 5-HT2B receptor (unknown origin) at 10 uM by CEREP analysis relative to control
# [21] = target: 5-hydroxytryptamine receptor 1B (Homo sapiens) (UniProt P28222); experiment: Inhibition of 5-HT1B receptor (unknown origin) at 10 uM by CEREP analysis relative to control
# [22] = Oral bioavailability in mouse; assay type: ADME, organism-based; conditions: in vivo
# Homo sapiens = species on record: Homo sapiens; experiment: Inhibition of sodium channel site 2 (unknown origin) at 10 uM by CEREP analysis relative to control
# [23] = target: T1, Alpha-2A adrenergic receptor (Homo sapiens) (UniProt P08913); experiment: Inhibition of alpha 2A adrenergic receptor (unknown origin) at 10 uM by CEREP analysis relative to control
# T1 sequence (whole entry): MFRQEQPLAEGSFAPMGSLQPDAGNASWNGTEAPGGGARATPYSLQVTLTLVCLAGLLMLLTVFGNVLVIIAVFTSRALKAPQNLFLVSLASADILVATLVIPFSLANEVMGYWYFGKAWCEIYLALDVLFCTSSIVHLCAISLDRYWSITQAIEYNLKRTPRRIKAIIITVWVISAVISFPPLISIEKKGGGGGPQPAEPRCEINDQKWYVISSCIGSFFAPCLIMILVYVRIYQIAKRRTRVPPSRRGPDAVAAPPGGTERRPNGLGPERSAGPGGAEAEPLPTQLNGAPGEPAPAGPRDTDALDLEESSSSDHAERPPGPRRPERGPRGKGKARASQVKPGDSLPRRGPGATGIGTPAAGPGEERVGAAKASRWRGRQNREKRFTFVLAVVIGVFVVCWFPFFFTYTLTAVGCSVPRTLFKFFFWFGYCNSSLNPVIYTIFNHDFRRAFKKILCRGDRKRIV
# [24] = target: T2, Muscarinic acetylcholine receptor M2 (Homo sapiens) (UniProt P08172); experiment: Inhibition of muscarinic M2 receptor (unknown origin) at 10 uM by CEREP analysis relative to control
# T2 sequence (whole entry): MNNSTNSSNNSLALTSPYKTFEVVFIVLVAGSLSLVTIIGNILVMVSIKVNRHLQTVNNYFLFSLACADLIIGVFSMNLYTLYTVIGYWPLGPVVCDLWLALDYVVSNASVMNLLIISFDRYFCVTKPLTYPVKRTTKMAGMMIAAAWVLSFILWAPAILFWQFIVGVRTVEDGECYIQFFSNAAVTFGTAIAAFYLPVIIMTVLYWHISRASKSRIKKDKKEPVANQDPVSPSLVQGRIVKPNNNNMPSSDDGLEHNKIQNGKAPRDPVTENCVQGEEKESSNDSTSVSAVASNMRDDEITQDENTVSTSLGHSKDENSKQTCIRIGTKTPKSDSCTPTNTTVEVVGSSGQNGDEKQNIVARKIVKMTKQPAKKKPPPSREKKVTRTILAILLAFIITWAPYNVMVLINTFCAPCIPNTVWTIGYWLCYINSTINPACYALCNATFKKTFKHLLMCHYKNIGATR
# [25] = target: 3',5'-cyclic-AMP phosphodiesterase 4D (Homo sapiens) (UniProt Q08499); experiment: Inhibition of PDE4D2 (unknown origin) at 10 uM by CEREP analysis relative to control
# [26] = target: cGMP-inhibited 3',5'-cyclic phosphodiesterase 3A (Homo sapiens) (UniProt Q14432); experiment: Inhibition of PDE3A (unknown origin) at 10 uM by CEREP analysis relative to control
# [27] = Clearance in mouse; assay type: ADME, organism-based; conditions: in vivo
# hERG = hERG (Homo sapiens, UniProt Q12809); experiment: Inhibition of hERG at 10 uM by CEREP analysis relative to control; assay type: toxicity
# [28] = target: Sodium-dependent serotonin transporter (Homo sapiens) (UniProt P31645); experiment: Inhibition of SERT (unknown origin) at 10 uM by CEREP analysis relative to control
# [29] = target: Tyrosine-protein kinase receptor UFO (Homo sapiens, UniProt P30530); experiment: Inhibition of AXL (unknown origin) by fluorescence-based microfluidic mobility shift assay
# [30] = target: Tyrosine-protein kinase Mer (Homo sapiens, UniProt Q12866); experiment: Inhibition of MERTK (unknown origin) by fluorescence-based microfluidic mobility shift assay
# [31] = Oral bioavailability in rat; assay type: ADME, organism-based; conditions: in vivo
# Sequence of 5-hydroxytryptamine receptor 1B (Homo sapiens) (P28222 whole entry): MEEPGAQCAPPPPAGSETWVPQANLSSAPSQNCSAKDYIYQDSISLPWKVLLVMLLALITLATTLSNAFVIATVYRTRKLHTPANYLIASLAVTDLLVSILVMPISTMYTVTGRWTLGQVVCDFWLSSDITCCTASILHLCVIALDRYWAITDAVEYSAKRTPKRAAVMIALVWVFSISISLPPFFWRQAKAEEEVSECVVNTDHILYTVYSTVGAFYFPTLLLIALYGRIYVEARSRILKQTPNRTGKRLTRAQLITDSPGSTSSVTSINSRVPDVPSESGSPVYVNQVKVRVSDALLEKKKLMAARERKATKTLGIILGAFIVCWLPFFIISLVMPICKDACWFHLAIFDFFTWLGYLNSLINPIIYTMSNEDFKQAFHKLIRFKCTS
# Sequence of Vascular endothelial growth factor receptor 2 (P35968 whole entry): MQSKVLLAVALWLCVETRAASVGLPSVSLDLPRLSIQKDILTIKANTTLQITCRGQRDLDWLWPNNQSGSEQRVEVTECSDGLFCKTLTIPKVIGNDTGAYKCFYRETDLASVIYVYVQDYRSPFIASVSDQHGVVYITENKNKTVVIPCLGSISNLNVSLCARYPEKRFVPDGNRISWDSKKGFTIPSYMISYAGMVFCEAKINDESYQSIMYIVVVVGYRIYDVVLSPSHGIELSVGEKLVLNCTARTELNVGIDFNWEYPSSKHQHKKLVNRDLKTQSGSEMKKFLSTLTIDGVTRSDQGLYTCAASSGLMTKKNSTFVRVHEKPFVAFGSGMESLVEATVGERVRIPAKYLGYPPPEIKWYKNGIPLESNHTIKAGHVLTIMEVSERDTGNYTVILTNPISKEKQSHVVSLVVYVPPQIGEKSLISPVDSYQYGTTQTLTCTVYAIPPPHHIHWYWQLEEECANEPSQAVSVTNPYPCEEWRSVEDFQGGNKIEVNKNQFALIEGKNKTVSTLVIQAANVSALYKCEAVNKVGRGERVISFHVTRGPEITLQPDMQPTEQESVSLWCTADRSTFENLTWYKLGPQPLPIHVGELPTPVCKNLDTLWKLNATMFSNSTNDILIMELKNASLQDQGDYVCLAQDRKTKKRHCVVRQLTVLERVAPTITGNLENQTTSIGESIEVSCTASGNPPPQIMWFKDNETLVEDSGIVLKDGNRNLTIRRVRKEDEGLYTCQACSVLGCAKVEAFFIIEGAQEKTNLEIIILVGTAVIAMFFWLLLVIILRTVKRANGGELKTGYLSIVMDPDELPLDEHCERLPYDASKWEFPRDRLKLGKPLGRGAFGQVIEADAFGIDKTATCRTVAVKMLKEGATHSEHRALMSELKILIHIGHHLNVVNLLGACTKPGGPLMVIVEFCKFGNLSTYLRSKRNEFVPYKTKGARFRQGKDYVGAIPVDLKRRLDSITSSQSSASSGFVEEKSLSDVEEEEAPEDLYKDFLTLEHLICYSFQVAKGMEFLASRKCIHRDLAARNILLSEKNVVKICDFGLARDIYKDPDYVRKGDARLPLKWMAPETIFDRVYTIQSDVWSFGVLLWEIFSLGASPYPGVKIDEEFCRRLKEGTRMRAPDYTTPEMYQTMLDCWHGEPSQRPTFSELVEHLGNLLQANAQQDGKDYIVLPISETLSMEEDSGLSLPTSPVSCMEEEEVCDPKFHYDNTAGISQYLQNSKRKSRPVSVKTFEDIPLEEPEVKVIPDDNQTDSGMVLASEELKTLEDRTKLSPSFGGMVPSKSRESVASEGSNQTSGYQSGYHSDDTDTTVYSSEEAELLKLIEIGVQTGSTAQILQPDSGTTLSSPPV
# Sequence of 5-hydroxytryptamine receptor 2B (Homo sapiens) (P41595 whole entry): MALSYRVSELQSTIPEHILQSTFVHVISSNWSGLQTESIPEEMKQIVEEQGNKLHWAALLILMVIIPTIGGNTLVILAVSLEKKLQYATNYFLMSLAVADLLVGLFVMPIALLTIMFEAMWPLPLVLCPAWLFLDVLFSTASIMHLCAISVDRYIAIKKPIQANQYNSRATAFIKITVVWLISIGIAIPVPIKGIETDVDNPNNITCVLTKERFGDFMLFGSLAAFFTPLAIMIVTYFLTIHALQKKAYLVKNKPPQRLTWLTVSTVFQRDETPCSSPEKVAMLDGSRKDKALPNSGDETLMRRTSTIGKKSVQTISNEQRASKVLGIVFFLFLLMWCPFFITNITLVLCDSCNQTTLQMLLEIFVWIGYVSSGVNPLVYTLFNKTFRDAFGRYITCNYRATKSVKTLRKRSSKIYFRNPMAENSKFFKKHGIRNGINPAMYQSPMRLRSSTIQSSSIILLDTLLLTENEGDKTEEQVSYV
# Sequence of 3',5'-cyclic-AMP phosphodiesterase 4D (Homo sapiens) (Q08499 whole entry): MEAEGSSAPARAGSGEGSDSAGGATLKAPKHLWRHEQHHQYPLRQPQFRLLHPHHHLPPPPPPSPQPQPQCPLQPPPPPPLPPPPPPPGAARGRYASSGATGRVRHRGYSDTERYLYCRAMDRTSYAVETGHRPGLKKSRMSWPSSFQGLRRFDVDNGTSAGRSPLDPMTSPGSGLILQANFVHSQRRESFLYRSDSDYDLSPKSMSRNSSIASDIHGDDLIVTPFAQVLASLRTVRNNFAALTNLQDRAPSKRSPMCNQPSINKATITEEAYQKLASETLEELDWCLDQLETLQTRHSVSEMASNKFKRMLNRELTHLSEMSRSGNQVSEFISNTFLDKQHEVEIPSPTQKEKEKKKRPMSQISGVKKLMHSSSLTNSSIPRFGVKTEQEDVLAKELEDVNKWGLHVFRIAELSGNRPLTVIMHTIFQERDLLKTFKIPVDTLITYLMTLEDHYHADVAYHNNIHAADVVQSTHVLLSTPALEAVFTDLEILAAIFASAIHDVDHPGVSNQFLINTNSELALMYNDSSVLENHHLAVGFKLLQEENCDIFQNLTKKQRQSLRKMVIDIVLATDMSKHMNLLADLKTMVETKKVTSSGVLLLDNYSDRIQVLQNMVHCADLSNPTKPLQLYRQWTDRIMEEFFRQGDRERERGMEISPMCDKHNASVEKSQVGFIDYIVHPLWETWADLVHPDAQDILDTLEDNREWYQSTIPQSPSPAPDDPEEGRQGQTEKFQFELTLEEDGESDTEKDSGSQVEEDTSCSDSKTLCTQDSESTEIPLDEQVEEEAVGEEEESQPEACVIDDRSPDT
# Sequence of Sodium-dependent serotonin transporter (Homo sapiens) (P31645 whole entry, looked up): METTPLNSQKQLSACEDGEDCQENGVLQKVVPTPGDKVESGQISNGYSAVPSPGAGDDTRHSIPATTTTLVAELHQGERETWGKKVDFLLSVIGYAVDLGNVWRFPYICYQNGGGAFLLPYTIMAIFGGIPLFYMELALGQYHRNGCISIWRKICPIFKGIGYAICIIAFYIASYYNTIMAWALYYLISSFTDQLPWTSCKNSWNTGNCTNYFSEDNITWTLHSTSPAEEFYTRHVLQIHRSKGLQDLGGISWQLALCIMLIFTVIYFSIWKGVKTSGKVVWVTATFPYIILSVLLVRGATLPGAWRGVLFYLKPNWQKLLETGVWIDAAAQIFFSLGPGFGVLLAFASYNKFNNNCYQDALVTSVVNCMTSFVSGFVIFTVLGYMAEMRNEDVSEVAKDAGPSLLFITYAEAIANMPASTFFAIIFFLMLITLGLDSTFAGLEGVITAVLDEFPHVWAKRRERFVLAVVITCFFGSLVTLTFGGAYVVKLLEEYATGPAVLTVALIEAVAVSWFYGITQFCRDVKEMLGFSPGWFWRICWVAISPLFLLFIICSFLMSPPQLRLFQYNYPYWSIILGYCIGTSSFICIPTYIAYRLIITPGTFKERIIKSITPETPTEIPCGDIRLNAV
# Sequence of hERG (Q12809 whole entry): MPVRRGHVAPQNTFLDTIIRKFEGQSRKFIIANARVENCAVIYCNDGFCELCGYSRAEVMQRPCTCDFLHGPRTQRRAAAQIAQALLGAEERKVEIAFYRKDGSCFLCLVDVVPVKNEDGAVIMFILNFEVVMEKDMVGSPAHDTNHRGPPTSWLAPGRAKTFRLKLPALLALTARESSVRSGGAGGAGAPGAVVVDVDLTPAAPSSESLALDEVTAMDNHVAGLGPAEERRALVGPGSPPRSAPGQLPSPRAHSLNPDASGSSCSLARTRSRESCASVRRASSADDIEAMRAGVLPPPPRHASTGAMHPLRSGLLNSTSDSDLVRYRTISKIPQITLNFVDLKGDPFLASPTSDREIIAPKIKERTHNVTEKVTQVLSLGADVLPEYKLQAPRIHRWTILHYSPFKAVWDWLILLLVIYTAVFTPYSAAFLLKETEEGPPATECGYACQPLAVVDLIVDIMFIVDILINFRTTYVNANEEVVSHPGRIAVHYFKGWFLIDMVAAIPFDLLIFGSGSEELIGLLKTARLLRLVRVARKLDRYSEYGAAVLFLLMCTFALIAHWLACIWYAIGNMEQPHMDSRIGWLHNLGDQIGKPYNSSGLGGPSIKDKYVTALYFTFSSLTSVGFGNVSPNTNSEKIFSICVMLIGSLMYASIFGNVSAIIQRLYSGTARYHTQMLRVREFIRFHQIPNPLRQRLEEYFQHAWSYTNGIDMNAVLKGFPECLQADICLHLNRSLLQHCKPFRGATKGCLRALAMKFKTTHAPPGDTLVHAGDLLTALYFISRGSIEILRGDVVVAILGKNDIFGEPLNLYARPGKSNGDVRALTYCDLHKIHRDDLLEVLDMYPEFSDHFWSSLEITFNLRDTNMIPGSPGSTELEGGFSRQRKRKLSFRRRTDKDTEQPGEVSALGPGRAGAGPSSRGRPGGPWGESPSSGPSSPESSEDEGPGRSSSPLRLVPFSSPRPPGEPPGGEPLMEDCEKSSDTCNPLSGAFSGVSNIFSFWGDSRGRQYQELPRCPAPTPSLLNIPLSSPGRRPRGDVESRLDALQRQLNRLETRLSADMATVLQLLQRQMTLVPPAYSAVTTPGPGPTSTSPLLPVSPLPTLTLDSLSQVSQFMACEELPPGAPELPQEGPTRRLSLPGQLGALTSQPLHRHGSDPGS
compound,measurement,setting,value
COc1cc2nccc(Oc3c(F)cc(NC(=O)c4cnccc4OC4CC4)cc3F)c2cc1OC,solubility kinetic,[1],4.4 µM
same,EC50,BaF3 [2],26 nM
same,solubility kinetic,[3],288 µM
same,EC50,cells,43 nM
CN1CCC(COc2cnc(-c3cccc(Cn4nc(-c5cccc(C#N)c5)ccc4=O)c3)nc2)CC1 [TEPOTINIB],EC50,BaF3 [4],183 nM
same,EC50,BaF3 [5],2810 nM
same,EC50,BaF3 [6],3040 nM
same,EC50,BaF3 [7],3440 nM
same,EC50,BaF3 [8],122 nM
same,EC50,BaF3 [9],1820 nM
same,EC50,BaF3 [10],3410 nM
same,EC50,BaF3 [11],24 nM
same,solubility kinetic,[1],48 µM
same,EC50,BaF3 [2],1910 nM
same,solubility kinetic,[3],295 µM
same,EC50,BaF3 [12],2.3 nM
same,EC50,BaF3 [13],0.6 nM
same,EC50,cells,6.4 nM
same,EC50,BaF3 [14],2210 nM
same,EC50,BaF3 [15],4.2 nM
same,EC50,BaF3 [16],123 nM
C[C@@H](c1ccc2nccn2c1)n1nnc2ncc(-c3cnn(C)c3)nc21 [SAVOLITINIB],EC50,BaF3 [4],13 nM
same,EC50,BaF3 [5],> 10000 nM
same,EC50,BaF3 [6],> 10000 nM
same,EC50,BaF3 [7],> 10000 nM
same,EC50,BaF3 [8],74 nM
same,EC50,BaF3 [9],7400 nM
same,EC50,BaF3 [10],> 10000 nM
same,EC50,BaF3 [11],8.4 nM
same,EC50,BaF3 [12],0.5 nM
same,EC50,BaF3 [13],0.5 nM
same,EC50,BaF3 [14],> 10000 nM
same,EC50,BaF3 [15],1.5 nM
same,EC50,BaF3 [16],73 nM
COc1cc2nccc(Oc3ccc(NC(=O)c4ccccc4OC)cc3F)c2cc1OC,IC50,[17],2.2 nM
same,IC50,[18],4.4 nM
same,solubility kinetic,[1],1 µM
same,EC50,BaF3 [2],795 nM
same,IC50,[19],250 nM
same,solubility kinetic,[3],6.1 µM
same,EC50,cells,1320 nM
COCCNCc1ccc(-c2cc3nccc(Oc4ccc(NC(=S)NC(=O)Cc5ccc(F)cc5)cc4F)c3s2)nc1 [GLESATINIB],solubility kinetic,[1],0.12 µM
same,IC50,[19],0.5 nM
same,solubility kinetic,[3],4 µM
COc1cc2nccc(Oc3ccc(NC(=O)c4ccncc4OC)cc3F)c2cc1OC,IC50,Cytochrome P450 3A4,300 nM
COc1cc2nccc(Oc3ccc(NC(=O)C4(C(=O)Nc5ccc(F)cc5)CC4)cc3)c2cc1OC [CABOZANTINIB],solubility kinetic,[1],5.2 µM
same,solubility kinetic,[3],21 µM
COc1cc2nccc(Oc3ccc(NC(=O)c4cnccc4OC)cc3F)c2cc1OC,IC50,Cytochrome P450 3A4,> 50000 nM
same,solubility kinetic,[1],24 µM
same,EC50,BaF3 [2],174 nM
same,solubility kinetic,[3],252 µM
same,EC50,cells,382 nM
COc1cc2c(Oc3c(F)cc(NC(=O)c4cnccc4OC4CC4)cc3F)ccnc2cc1OCCO,inhibition at 10 µM,L-type calcium channel,50%
same,inhibition,[20],69%
same,inhibition,[21],22%
same,bioavailability,[22],~100%
same,inhibition,Homo sapiens,57%
same,inhibition,[23],-1%
same,inhibition,[24],81%
same,inhibition,[25],96%
same,inhibition,[26],99%
same,clearance,[27],5.4 mL/min/kg
same,inhibition at 10 µM,hERG,13%
same,solubility kinetic,[1],8.1 µM
same,EC50,BaF3 [2],14 nM
same,solubility kinetic,[3],312 µM
same,EC50,cells,18 nM
same,inhibition,[28],4%
Cc1ccc(C(=O)Nc2ccc(Oc3cc4cnn(C)c4cc3-c3cn[nH]c3)c(F)c2)c(=O)n1-c1ccc(F)cc1 [MERESTINIB],IC50,[29],0.5 nM
same,EC50,BaF3 [4],64 nM
same,EC50,BaF3 [5],18 nM
same,EC50,BaF3 [6],129 nM
same,EC50,BaF3 [7],255 nM
same,EC50,BaF3 [8],837 nM
same,EC50,BaF3 [9],91 nM
same,EC50,BaF3 [10],26 nM
same,EC50,BaF3 [11],511 nM
same,solubility kinetic,[1],0.08 µM
same,EC50,BaF3 [2],116 nM
same,IC50,[19],341 nM
same,solubility kinetic,[3],0.4 µM
same,EC50,BaF3 [12],21 nM
same,EC50,BaF3 [13],7.8 nM
same,EC50,cells,25 nM
same,EC50,BaF3 [14],23 nM
same,EC50,BaF3 [15],249 nM
same,EC50,BaF3 [16],203 nM
same,IC50,[30],0.5 nM
CNCCOc1cc2nccc(Oc3c(F)cc(NC(=O)c4cnccc4OC)cc3F)c2cc1OC,inhibition at 10 µM,L-type calcium channel,41%
same,inhibition,[20],58%
same,inhibition,[21],54%
same,bioavailability,[22],< 5%
same,inhibition,Homo sapiens,89%
same,inhibition,[23],54%
same,inhibition,[24],3%
same,inhibition,[25],11%
same,inhibition,[26],-2%
same,clearance,[27],43 mL/min/kg
same,inhibition at 10 µM,hERG,70%
same,solubility kinetic,[1],208 µM
same,EC50,BaF3 [2],41 nM
same,solubility kinetic,[3],276 µM
same,EC50,cells,59 nM
same,inhibition,[28],101%
COc1cc2c(Oc3c(F)cc(NC(=O)c4cnccc4OC)cc3F)ccnc2cc1OCCO,inhibition at 10 µM,L-type calcium channel,-3%
same,inhibition,[20],18%
same,inhibition,[21],-8%
same,bioavailability,[22],~100%
same,inhibition,Homo sapiens,30%
same,bioavailability,[31],~100%
same,inhibition,[23],8%
same,inhibition,[24],12%
same,inhibition,[25],90%
same,inhibition,[26],98%
same,inhibition at 10 µM,hERG,3%
same,solubility kinetic,[1],11 µM
same,EC50,BaF3 [2],31 nM
same,solubility kinetic,[3],315 µM
same,EC50,cells,36 nM
same,inhibition,[28],7%
COc1cc2nccc(Oc3c(F)cc(NC(=O)c4cnccc4OC)cc3F)c2cc1OC,solubility kinetic,[1],5.4 µM
same,EC50,BaF3 [2],56 nM
same,solubility kinetic,[3],205 µM
same,EC50,cells,123 nM
